According to the NIST ThermoML archive (doi:10.1021/je100832h):

Assays:
[1] = xn = mol fraction of the nth substance listed; conditions: 101.32 kPa, Liquid, Vibrating tube method
[2] = excess molar enthalpy (molar enthalpy of mixing); xn = mol fraction of the nth substance listed; conditions: 101 kPa, Liquid, Calvet calorimetry

CCCCCCCCCC [decane] + CCOC(C)=O
Conditions | excess molar enthalpy [kcal/mol] | mass density [kg/m3]
[1], 291.15 K, x2 = 0 | – | 731.22
[1], 291.15 K, x2 = 0.0174 | – | 732.37
[1], 291.15 K, x2 = 0.0789 | – | 736.87
[1], 291.15 K, x2 = 0.1457 | – | 742.14
[1], 291.15 K, x2 = 0.2494 | – | 751.47
[1], 291.15 K, x2 = 0.3508 | – | 762.27
[1], 291.15 K, x2 = 0.4382 | – | 773.02
[1], 291.15 K, x2 = 0.5149 | – | 783.83
[1], 291.15 K, x2 = 0.5781 | – | 793.79
[1], 291.15 K, x2 = 0.6446 | – | 805.51
[1], 291.15 K, x2 = 0.7051 | – | 817.52
[1], 291.15 K, x2 = 0.7648 | – | 830.7
[1], 291.15 K, x2 = 0.8069 | – | 841.06
[1], 291.15 K, x2 = 0.8553 | – | 854.05
[1], 291.15 K, x2 = 0.8914 | – | 864.68
[1], 291.15 K, x2 = 0.9318 | – | 877.69
[1], 291.15 K, x2 = 0.9794 | – | 894.7
[1], 298.15 K, x2 = 0 | – | 726.2
[1], 298.15 K, x2 = 0.0319 | – | 728.3
[1], 298.15 K, x2 = 0.1165 | – | 734.6
[1], 298.15 K, x2 = 0.2048 | – | 741.9
[1], 298.15 K, x2 = 0.2835 | – | 749.3
[1], 298.15 K, x2 = 0.3475 | – | 756.1
[1], 298.15 K, x2 = 0.4252 | – | 765.35
[1], 298.15 K, x2 = 0.4873 | – | 773.59
[1], 298.15 K, x2 = 0.5417 | – | 781.58
[1], 298.15 K, x2 = 0.6031 | – | 791.53
[1], 298.15 K, x2 = 0.6469 | – | 799.34
[1], 298.15 K, x2 = 0.6957 | – | 808.8
[1], 298.15 K, x2 = 0.7407 | – | 818.3
[1], 298.15 K, x2 = 0.78 | – | 827.2
[1], 298.15 K, x2 = 0.8179 | – | 836.5
[1], 298.15 K, x2 = 0.8516 | – | 845.4
[1], 298.15 K, x2 = 0.8865 | – | 855.4
[1], 298.15 K, x2 = 0.9207 | – | 866.1
[1], 298.15 K, x2 = 0.9604 | – | 879.5
[1], 318.15 K, x2 = 0 | – | 710.9
[1], 318.15 K, x2 = 0.0117 | – | 711.52
[1], 318.15 K, x2 = 0.0758 | – | 715.68
[1], 318.15 K, x2 = 0.1539 | – | 721.34
[1], 318.15 K, x2 = 0.2456 | – | 728.94
[1], 318.15 K, x2 = 0.2848 | – | 732.56
[1], 318.15 K, x2 = 0.3468 | – | 738.71
[1], 318.15 K, x2 = 0.3714 | – | 741.31
[1], 318.15 K, x2 = 0.4391 | – | 749.04
[1], 318.15 K, x2 = 0.516 | – | 758.96
[1], 318.15 K, x2 = 0.5314 | – | 761.13
[1], 318.15 K, x2 = 0.5878 | – | 769.54
[1], 318.15 K, x2 = 0.6448 | – | 778.92
[1], 318.15 K, x2 = 0.694 | – | 787.77
[1], 318.15 K, x2 = 0.7127 | – | 791.38
[1], 318.15 K, x2 = 0.7829 | – | 806.2
[1], 318.15 K, x2 = 0.8204 | – | 815
[1], 318.15 K, x2 = 0.8538 | – | 823.5
[1], 318.15 K, x2 = 0.8886 | – | 833
[1], 318.15 K, x2 = 0.9198 | – | 842.3
[1], 318.15 K, x2 = 0.9553 | – | 853.8
[1], 328.15 K, x2 = 0 | – | 703.34
[1], 328.15 K, x2 = 0.0347 | – | 705.37
[1], 328.15 K, x2 = 0.1351 | – | 711.99
[1], 328.15 K, x2 = 0.234 | – | 719.58
[1], 328.15 K, x2 = 0.3322 | – | 728.47
[1], 328.15 K, x2 = 0.4166 | – | 737.37
[1], 328.15 K, x2 = 0.4853 | – | 745.64
[1], 328.15 K, x2 = 0.5551 | – | 755.09
[1], 328.15 K, x2 = 0.6186 | – | 764.72
[1], 328.15 K, x2 = 0.6774 | – | 774.65
[1], 328.15 K, x2 = 0.7271 | – | 783.92
[1], 328.15 K, x2 = 0.7735 | – | 793.4
[1], 328.15 K, x2 = 0.8619 | – | 814.12
[1], 328.15 K, x2 = 0.9041 | – | 825.66
[1], 328.15 K, x2 = 0.9511 | – | 840.13
[2], 291.15 K, x2 = 0.0986 | 0.146 | –
[2], 291.15 K, x2 = 0.1909 | 0.246 | –
[2], 291.15 K, x2 = 0.2646 | 0.318 | –
[2], 291.15 K, x2 = 0.3377 | 0.372 | –
[2], 291.15 K, x2 = 0.4032 | 0.404 | –
[2], 291.15 K, x2 = 0.4608 | 0.422 | –
[2], 291.15 K, x2 = 0.5067 | 0.429 | –
[2], 291.15 K, x2 = 0.5523 | 0.433 | –
[2], 291.15 K, x2 = 0.5924 | 0.428 | –
[2], 291.15 K, x2 = 0.6147 | 0.421 | –
[2], 291.15 K, x2 = 0.6541 | 0.409 | –
[2], 291.15 K, x2 = 0.7009 | 0.389 | –
[2], 291.15 K, x2 = 0.7512 | 0.357 | –
[2], 291.15 K, x2 = 0.7956 | 0.317 | –
[2], 291.15 K, x2 = 0.8448 | 0.268 | –
[2], 291.15 K, x2 = 0.8927 | 0.208 | –
[2], 291.15 K, x2 = 0.9375 | 0.14 | –
[2], 291.15 K, x2 = 0.9684 | 0.0715 | –
[2], 298.15 K, x2 = 0.0884 | 0.119 | –
[2], 298.15 K, x2 = 0.177 | 0.216 | –
[2], 298.15 K, x2 = 0.2587 | 0.289 | –
[2], 298.15 K, x2 = 0.3362 | 0.345 | –
[2], 298.15 K, x2 = 0.4005 | 0.377 | –
[2], 298.15 K, x2 = 0.4566 | 0.398 | –
[2], 298.15 K, x2 = 0.5101 | 0.408 | –
[2], 298.15 K, x2 = 0.5578 | 0.408 | –
[2], 298.15 K, x2 = 0.5984 | 0.402 | –
[2], 298.15 K, x2 = 0.6297 | 0.395 | –
[2], 298.15 K, x2 = 0.6727 | 0.381 | –
[2], 298.15 K, x2 = 0.7191 | 0.357 | –
[2], 298.15 K, x2 = 0.7636 | 0.329 | –
[2], 298.15 K, x2 = 0.8098 | 0.289 | –
[2], 298.15 K, x2 = 0.8591 | 0.24 | –
[2], 298.15 K, x2 = 0.9024 | 0.185 | –
[2], 298.15 K, x2 = 0.9385 | 0.124 | –
[2], 298.15 K, x2 = 0.9744 | 0.0595 | –
[2], 318.15 K, x2 = 0.0892 | 0.136 | –
[2], 318.15 K, x2 = 0.172 | 0.226 | –
[2], 318.15 K, x2 = 0.2474 | 0.3 | –
[2], 318.15 K, x2 = 0.3208 | 0.354 | –
[2], 318.15 K, x2 = 0.3848 | 0.388 | –
[2], 318.15 K, x2 = 0.4412 | 0.409 | –
[2], 318.15 K, x2 = 0.4941 | 0.42 | –
[2], 318.15 K, x2 = 0.5409 | 0.421 | –
[2], 318.15 K, x2 = 0.5801 | 0.417 | –
[2], 318.15 K, x2 = 0.5985 | 0.412 | –
[2], 318.15 K, x2 = 0.6567 | 0.391 | –
[2], 318.15 K, x2 = 0.6942 | 0.374 | –
[2], 318.15 K, x2 = 0.7429 | 0.344 | –
[2], 318.15 K, x2 = 0.7959 | 0.303 | –
[2], 318.15 K, x2 = 0.8499 | 0.249 | –
[2], 318.15 K, x2 = 0.9018 | 0.179 | –
[2], 318.15 K, x2 = 0.9554 | 0.0973 | –
